Reference: patent US20230172201A1, “Use of 4-Phenylbutyric Acid and/or 3-Phenylbutyric Acid and/or 2-Phenylbutyric Acid in Preventing and Treating Cryptogamic Diseases” (Institut National de Recherche Pour L'Agriculture, …, priority 2020, published 2023)
Where two headings read alike, the source gives them in different places.

Columns and labels:
[1] = test system: Botrytis cinerea (BMM strain); experiment: Mycelial development in liquid medium, absorbance at 600 nm (nephelometry); type: cell-based; conditions: 1 mM; for inhibition at 1000 µM: Botrytis cinerea, 96 h, incubation for 4 days, Example 4, read-out: degree of inhibition
[2] = test system: Sclerotinia sclerotorum; experiment: Radial growth of the mycelium; type: cell-based; conditions: 168 h
[3] = test system: Phytophthora capsici; experiment: Radial growth of the oomycete; type: cell-based
[4] = test system: Botrytis cinerea (BMM strain); experiment: Germination of the spores and growth of the primary hypha in liquid medium; type: cell-based; conditions: 16 to 18 hours
[5] = test system: Botrytis cinerea (BMM strain); experiment: Radial growth of the mycelium on solid PDA medium
Procedure: The BMM strain of the fungus B. cinerea was cultured for about 10 days on solid PDA medium (24 g/L of PDB and 15 g/L of agar) in the dark and at a temperature of 22° C. A cylinder of agar comprising the mycelium at its top was then cut out with a sterile punch with a diameter of 6 mm, and was then deposited at the center of round Petri dishes (9 cm diameter) containing PDA medium supplemented or not with 4-PBA. 4-PBA, prepared extemporaneously, was added directly to the molten culture medium to final concentrations of 1, 2 and 5 mM. Controls were prepared by adding a volume of sterile water equivalent to the highest concentration of 4-PBA. The dishes were kept in the dark at a temperature of 22° C. throughout the experiment. […] For this, the following linear regression was used: Degree of inhibition (%)=f(ln[4-PBA]).

[6] = test system: Fusarium verticilloides; experiment: Radial growth of the mycelium; type: cell-based; conditions: 288 h
[7] = test system: Arabidopsis thaliana (ecotype Col-0); experiment: Effect of watering with 4-PBA on vegetative growth (rosette weight); type: in vivo; conditions: watering with 1 mM once a week for 4 weeks
Procedure: Material and Methods. The seeds of A. thaliana (ecotype Col-0) were sown in individual pots directly on compost without a prior step of stratification. […] These plants were then separated into 2 batches with 12 plants each, one watered with distilled water, the other with a solution of 4-PBA at a final concentration of 1 mM. In practice, watering took place once a week on a fixed day and at a fixed time, for 4 consecutive weeks (FIG. 5a). […] The rosette of each of the plantlets was then weighed to evaluate the effect of watering with 4-PBA on vegetative growth.

[8] = test system: Alternaria brassicicola; experiment: Radial growth of the mycelium; type: cell-based; conditions: 240 h; for inhibition at 1000 µM / inhibition at 2000 µM / inhibition at 5000 µM: time 10 days
[9] = test system: Fusarium graminearum; experiment: microbe, parasite or virus in culture; type: cell-based
[10] = test system: Phytophthora parasitica; experiment: Radial growth of the oomycete; type: cell-based
[11] = test system: Arabidopsis thaliana (ecotype Col-0); experiment: Phytotoxicity after leaf infiltration; type: in vivo; conditions: 0.5 or 1 mM; 48 hours after infiltration
Procedure: Material and Methods. Seeds of A. thaliana (ecotype Col-0) were sown in individual pots directly on compost without a prior step of stratification. […] The experiment was repeated 3 times. Each experiment included about ten plants. Six leaves representative of the 3 experiments were photographed 48 hours after infiltration (FIG. 5c).

[12] = test system: Colletrotrichum lindemuthianum; experiment: Radial growth of the mycelium; type: cell-based
[13] = test system: Alternaria solani; experiment: Radial growth of the mycelium; type: cell-based; conditions: 528 h
[14] = test system: Cercospora beticola; experiment: Radial growth of the mycelium; type: cell-based; conditions: 528 h
[15] = test system: Zymoseptoria tritici; experiment: Growth of the primary hypha on PG solid medium; type: cell-based
[16] = test system: Botrytis cinerea (BMM strain); experiment: Protection of tomato foliar disks against gray rot, B. cinerea spore inoculum with or without compound; type: in vivo; conditions: for proportion of lesions larger than 4 mm in diameter: tomato Moneymaker foliar disks, 3 days; for median ratio of gDNA of the fungus to that of the plant, times lower than fungus alone / decrease of the average diameter of the lesions: tomato Moneymaker
[17] = test system: Leptosphaeria maculans; experiment: Radial growth of the mycelium; type: cell-based; conditions: Plenodomus lingam, 432 h, time 18 days
[18] = test system: Botrytis cinerea (BMM strain); experiment: Protection of grapevine foliar disks against gray rot, B. cinerea spore inoculum with or without 4-PBA; type: in vivo; conditions: grapevine cv. Gamay foliar disks; 4-PBA 1 mM; 5·10^4 spores/mL; 3 days
Procedure: Material and Methods. A commercial variety of grapevine (Vitis […], cultivar Gamay) was grown in a greenhouse for 6 weeks. […] The inoculum was prepared as mentioned above for the experiments carried out with A. thaliana. A volume of 6 μL was deposited on each disk. The infected disks were incubated as for the experiments carried out on foliar disks of tomato. The disease symptoms were photographed and quantified 3 days after infection from the distribution of the lesions as a function of their diameter and by measuring the largest diameter of the lesions. […] The results presented in FIG. 4 correspond to the mean values±standard deviation.

[19] = test system: Phanerochaete chrysosporium; experiment: Radial growth of the mycelium; type: cell-based
[20] = test system: Botrytis cinerea (BMM strain); experiment: Protection of thale cress leaves against gray rot, B. cinerea spore inoculum with or without 4-PBA; type: in vivo; conditions: A. thaliana Col-0 leaves, 4-PBA 1 mM in inoculum
[21] = test system: Helmintosporium teres; experiment: Radial growth of the mycelium; type: cell-based
[22] = test system: Fusarium oxysporum f. sp melonis; experiment: Radial growth of the mycelium; type: cell-based; conditions: 288 h
[23] = test system: Magnaporthe oryzae; experiment: microbe, parasite or virus in culture; type: cell-based; conditions: Pyricularia oryzae, 336 h
[24] = time 12 days (day control colonized the whole Petri dish)
[25] = lowest concentration tested (1 mM)
[26] = radial growth EC50 compared with B. cinerea
[27] = time 22 days (day control colonized the whole Petri dish)

CCC(C(=O)O)c1ccccc1 (stereo not drawn) [2-PBA, 2-Phenylbutyric acid]
inhibition at 1000 µM [1]: ~70%

O=C(O)CCCc1ccccc1 [4-PBA, 4-Phenylbutyric acid]
repression of mycelial growth measured by nephelometry ([1]; 4 days, Example 3): 94%
inhibition at 1000 µM [1]: 97%
inhibition at 1000 µM ([2]; 1 mM 4-PBA, time 7 days): 0%
inhibition at 2000 µM ([2]; 2 mM 4-PBA, time 7 days): 73%
inhibition at 5000 µM ([2]; 5 mM 4-PBA, time 7 days): 100%
EC50 ([2]; time 7 days (day control colonized the whole Petri dish)): 1900 µM
growth at higher concentrations ([3]; 2 and 5 mM): complete absence of growth for 20 days
inhibition at 1000 µM ([3]; Phytophthora capsici, 216 h, 1 mM 4-PBA, time 9 days): 90%
inhibition at 2000 µM ([3]; Phytophthora capsici, 216 h, 2 mM 4-PBA, time 9 days): 100%
inhibition at 5000 µM ([3]; Phytophthora capsici, 216 h, 5 mM 4-PBA, time 9 days): 100%
germination rate of the spores ([4]; 4-PBA 0.1 mM): 100%
inhibition at 1000 µM ([4]; Botrytis cinerea, 1 mM): 86%
concentration from which growth of the primary hypha is limited ([4]; liquid PDB): ≥ 0.1 mM
persistence of the active principle ([5]; 5 mM in culture medium): up to 23 days
radial growth of the mycelium ([5]; 1, 2 and 5 mM in PDA, 26 days): dose-dependent slowing
EC50 ([5]; Botrytis cinerea, read-out: EC50 (median inhibitory concentration, radial growth halved)): 2000 to 3000 µM
inhibition at 1000 µM ([6]; 1 mM 4-PBA, time 12 days): 66%
inhibition at 2000 µM ([6]; 2 mM 4-PBA, time 12 days): 74%
inhibition at 5000 µM ([6]; 5 mM 4-PBA, time 12 days): 98%
EC50 [6, 24]: 500 µM
effect on the aerial biomass [7]: no effect
inhibition at 1000 µM ([8]; strain 1, 1 mM 4-PBA): 70%
inhibition at 2000 µM ([8]; strain 1, 2 mM 4-PBA): 88%
inhibition at 5000 µM ([8]; strain 1, 5 mM 4-PBA): 97%
EC50 ([8]; strain 1, time 10 days): 260 µM
inhibition at 1000 µM ([8]; strain 1509, 1 mM 4-PBA): 58%
inhibition at 2000 µM ([8]; strain 1509, 2 mM 4-PBA): 81%
inhibition at 5000 µM ([8]; strain 1509, 5 mM 4-PBA): 96%
EC50 ([8]; strain 1509, time 10 days): 640 µM
inhibition at 1000 µM ([9]; Fusarium graminearum, 144 h): 48%
inhibition at 2000 µM ([9]; Fusarium graminearum, 144 h): 97%
inhibition at 5000 µM ([9]; Fusarium graminearum, 144 h): 99%
persistence of the molecule [9, 25]: up to 10 days
growth at higher concentrations ([10]; 2 and 5 mM): complete absence of growth for 20 days
inhibition at 1000 µM ([10]; Phytophthora nicotianae, 240 h, 1 mM 4-PBA, time 10 days): 95%
inhibition at 2000 µM ([10]; Phytophthora nicotianae, 240 h, 2 mM 4-PBA, time 10 days): 99%
inhibition at 5000 µM ([10]; Phytophthora nicotianae, 240 h, 5 mM 4-PBA, time 10 days): 100%
EC50 ([10]; Phytophthora nicotianae, 240 h, time 10 days (day control colonized the whole Petri dish)): 0.00024 µM
difference between EC50 calculated for B. cinerea and for P. parasitica ([10]; Table 2 and FIG. 6b): 7 orders of magnitude
times more sensitive to the molecule than B. cinerea [10, 26]: about 12 million
macroscopic symptoms after infiltration of the leaves [11]: absence of macroscopic symptoms
inhibition at 1000 µM ([12]; 288 h, 1 mM 4-PBA, time 12 days): 67%
inhibition at 2000 µM ([12]; 288 h, 2 mM 4-PBA, time 12 days): 75%
inhibition at 5000 µM ([12]; 288 h, 5 mM 4-PBA, time 12 days): 97%
EC50 ([12]; 288 h, time 12 days (day control colonized the whole Petri dish)): 450 µM
persistence of the molecule [12, 25]: ≤ 30 days
inhibition at 1000 µM ([13]; 1 mM 4-PBA, time 22 days): 25%
inhibition at 2000 µM ([13]; 2 mM 4-PBA, time 22 days): 62%
inhibition at 5000 µM ([13]; 5 mM 4-PBA, time 22 days): 100%
EC50 [13, 27]: 1650 µM
inhibition at 1000 µM ([14]; 1 mM 4-PBA, time 22 days): 0%
inhibition at 2000 µM ([14]; 2 mM 4-PBA, time 22 days): 13%
inhibition at 5000 µM ([14]; 5 mM 4-PBA, time 22 days): 67%
EC50 [14, 27]: 2810 µM
EC50 ([15]; 48 h, isolate 14-FT-A1, 48 hours): 245 µg/mL
EC50 ([15]; 48 h, isolate 14-FT-A1, 48 hours, read-out: EC50): 1320 µM
EC50 ([15]; 48 h, isolate 37-30, 48 hours): 163 µg/mL
EC50 ([15]; 48 h, isolate 37-30, 48 hours, read-out: EC50): 874 µM
EC50 ([15]; 48 h, isolate 37-41, 48 hours): 164 µg/mL
EC50 ([15]; 48 h, isolate 37-41, 48 hours, read-out: EC50): 880 µM
EC50 ([15]; 48 h, isolate 11183, 48 hours): 196 µg/mL
EC50 ([15]; 48 h, isolate 11183, 48 hours, read-out: EC50): 1050 µM
EC50 ([15]; 48 h, isolate IPO-323, 48 hours): 122 µg/mL
EC50 ([15]; 48 h, isolate IPO-323, 48 hours, read-out: EC50): 657 µM
EC50 ([15]; 48 h, isolate ST5548, 48 hours): 246 µg/mL
EC50 ([15]; 48 h, isolate ST5548, 48 hours, read-out: EC50): 1320 µM
EC50 ([15]; 48 h, isolate STDP-047915, 48 hours): 212 µg/mL
EC50 ([15]; 48 h, isolate STDP-047915, 48 hours, read-out: EC50): 1140 µM
EC50 ([15]; six isolates resistant to conventional fungicides, read-out: EC50 calculated for all of these isolates, order of magnitude): ~1000 µM
average diameters of the foliar lesions as a function of concentration ([16]; tomato M82 foliar disks, 0.5 to 2.5 mM): gradual decrease
efficacy of protection compared with the Moneymaker variety ([16]; tomato M82 foliar disks, 4-PBA 1 mM): equivalent efficacy
proportion of lesions larger than 4 mm in diameter ([16]; 4-PBA 1 mM, 5·10^4 spores/mL): 15%
proportion of lesions larger than 4 mm in diameter ([16]; 4-PBA 1 mM, 5·10^5 spores/mL): 23%
median ratio of gDNA of the fungus to that of the plant, times lower than fungus alone ([16]; 4-PBA 1 mM, 5·1^04 spores/mL): 40 times
median ratio of gDNA of the fungus to that of the plant, times lower than fungus alone ([16]; 4-PBA 1 mM, 5·10^5 spores/mL): 10 times
decrease of the average diameter of the lesions ([16]; 4-PBA 1 mM, highest concentration of spores (5·10^5 spores/mL)): 58%
decrease of the average diameter of the lesions ([16]; 4-PBA 1 mM, lowest concentration of spores (5·10^4 spores/mL)): 68%
inhibition at 1000 µM ([17]; 1 mM 4-PBA): 73%
inhibition at 2000 µM ([17]; 2 mM 4-PBA): 99%
inhibition at 5000 µM ([17]; 5 mM 4-PBA): 99%
decrease in the average diameter of the lesions [18]: ~75%
time for the fungus to overcome supplementation of the culture medium ([19]; 4-PBA 1 mM): 14 days
inhibition at 1000 µM ([19]; Phanerodontia chrysosporium, 96 h, 1 mM 4-PBA, time 4 days): 99%
inhibition at 2000 µM ([19]; Phanerodontia chrysosporium, 96 h, 2 mM 4-PBA, time 4 days): 100%
inhibition at 5000 µM ([19]; Phanerodontia chrysosporium, 96 h, 5 mM 4-PBA, time 4 days): 100%
development at higher concentrations ([19]; final concentrations of 2 and 5 mM): unable to develop
leaves that did not display symptoms ([20]; 5·10^4 spores/mL, 4 days after inoculation): 37%
proportion of lesions whose diameter was greater than 4 mm ([20]; 4 days after inoculation): 23%
average diameter of the lesions divided by ([20]; 4 days, relative to fungus alone): 2.2 times
ratio of gDNA of the fungus to that of the plant, median decrease by a factor ([20]; quantitative PCR): 10
inhibition at 1000 µM ([21]; 240 h, 1 mM 4-PBA, time 10 days): 94%
inhibition at 2000 µM ([21]; 240 h, 2 mM 4-PBA, time 10 days): 97%
inhibition at 5000 µM ([21]; 240 h, 5 mM 4-PBA, time 10 days): 100%
EC50 ([21]; 240 h, time 10 days (day control colonized the whole Petri dish)): 0.00665 µM
persistence of the molecule [21, 25]: ≤ 30 days
EC50 times lower than that of B. cinerea [21, 26]: 450 000 times
inhibition at 1000 µM ([22]; 1 mM 4-PBA, time 12 days): 68%
inhibition at 2000 µM ([22]; 2 mM 4-PBA, time 12 days): 80%
inhibition at 5000 µM ([22]; 5 mM 4-PBA, time 12 days): 99%
EC50 [22, 24]: 400 µM
EC50 [23]: 1330 µM
inhibition at 1000 µM [23]: 39%
inhibition at 2000 µM [23]: 66%
inhibition at 5000 µM [23]: 100%
